# Assay results as given in patent US20050171014A1, “Conjugates of ligand linker and cytotoxic agent and related composition and methods of use” (Government of the United States of America, represented by …, priority 2003, published 2005).
# pIC50: −log10 of the molar value. Starred links: 1 amine or outer side, 2 acyl side, 3 side chain; linkers in the order of their positions; H or OH if unused. Non-standard residues stand in square brackets, D forms with d. Residues, ends and D or L forms follow the SMILES beside them. NMePhe(β,β-Me2) = CN[C@H](C(=O)O)C(C)(C)c1ccccc1; X1 = C/C(=C\[C@H](C(C)C)N(C)[*:1])C(=O)[*:2]; Tle = CC(C)(C)[C@H](N)C(=O)O; Nle = CCCC[C@H](N)C(=O)O
# Tests used:
# [1] = tested on: gastrin receptor-expressing 3T3 cells; assay type: cell-based; settings: methods of Example 7
# Method: Isogenic cell lines, one transfected with the target cell surface receptor and the parent cell line without detectable receptor expression, were used for determination of selective activity of toxin conjugates. Transfection of NIH/3T3, CHO and HeLa cells (American Type Culture Collection, Manassas, Va.) with gastrin receptor cDNA (prepared as described in Tarasova et al., J. Biol. Chem. 272: 14817-14824 (1997)) was performed as described (Tarasova et al., J Biol. Chem. 272(23): 14817-14824 (1997)). For the tests, the cells were seeded in 96-well plates at a density of 500-1000 cells per well and allowed to attach for 24 hours. The compounds were added to the cells at concentrations ranging from 10 pM to 10 μM and the cells were grown in a CO2 incubator in the presence of compounds for 4-5 days. The cell number was estimated with either the methylthiazolyldiphenyl-tetrazolium bromide (MTT) assay (Alley et al., Cancer Res. 48(3): 589-601 (1988)) or sulforhodamine assay as described in Skehan et al., J. Natl. Cancer Inst. 82(13): 1107-1112 (1990)).
# [2] = tested on: cathepsin B and cathespin D
smiles,measurement,setting,value
"CCCC[C@H](NC(=O)[C@H](Cc1c[nH]c2ccccc12)NC(=O)CNC(=O)[C@H](Cc1ccc(O)cc1)NC(=O)[C@H](C)NC(=O)[C@H](CCC(=O)O)NC(=O)[C@H](CCC(=O)O)NC(=O)[C@H](CCC(=O)O)NC(=O)[C@H](C)NC(=O)[C@H](CC(C)C)NC(=O)[C@H](C)NC(=O)[C@H](CC(C)C)NC(=O)[C@@H](NC(=O)/C(C)=C/[C@H](C(C)C)N(C)C(=O)[C@@H](NC(=O)[C@@H](NC)C(C)(C)c1ccccc1)C(C)(C)C)C(C)C)C(=O)N[C@@H](CC(=O)O)C(=O)N[C@@H](Cc1ccccc1)C(N)=O (H-[NMePhe(β,β-Me2)][Tle][X1]VLALAEEEAYGW[Nle]DF-NH2)",pIC50,[1],6.00
same,products of hydrolysis by lysosomal proteases,[2],generated mostly pentapeptide or SPA110 extended by Val-Leu on the C-terminus
